According to patent publication US20230257351A1, “SUBSTITUTED N-[…] HAVING P2X4 RECEPTOR ANTAGONISTIC ACTIVITY” (Bayer Aktiengesellschaft, priority 2020, published 2023):

Assays:
[1] = system: neuropathic mechanical allodynia induced by CCI surgery; experiment: Chronic Constriction Injury (CCI) Neuropathic Pain Model in Rats with Pain Behavior Read Out; type: in vivo, male Sprague-Dawley rats; settings: rat CCI, von Frey, BID p.o. days 0 through 9
Method: Aim of the study was to test the efficacy of example 68 at ameliorating neuropathic mechanical allodynia. Male Sprague-Dawley rats were subject to chronic constriction injury of the sciatic nerve to induce neuropathic pain. Of those rats, 10 per group were assigned to treatment conditions involving BID drug administration for 10 days and behavioral assessment of mechanical sensitivity for allodynia with von Frey testing (vF). Behavior was assessed pre- and postdosing on Days 0, 2, 5, and 9. Rats were treated with Vehicle or test article BID on days 0 through 9, and rats in the gabapentin treatment group received gabapentin SID on days 0, 2, 5, and 9 in conjunction with behavioral assessment.
As vehicle Solutol/DMSO/WFI (40/10/50) was employed. Application volume for the per oral administration was 10 ml/kg.
Neuropathy was induced in male Sprague-Dawley rats by tying four loose ligatures of chromic gut around the common sciatic nerve in deeply anesthetized rats like described in Bennett, G. J., and Y. K. Xie. “A Peripheral Mononeuropathy in Rat That Produces Disorders of Pain Sensation like Those Seen in Man.” Pain 33 (1988): 87-107.
Mechanical allodynia was measured using 8 Semmes-Weinstein filaments (Stoelting©; Wood Dale, Ill., USA) with varying stiffness (0.4, 0.6, 1.0, 2.0, 4.0, 6.0, 8.0, and 15 g) according to the up-down method1. Animals were placed in individual acrylic chambers on a metal mesh surface and allowed to acclimate to their surroundings for a minimum of 15 minutes before testing. Each filament was presented perpendicular to the plantar surface with sufficient force to cause slight buckling against the paw and held for approximately 6 seconds or until a positive response is noted (paw sharply withdrawn).
Testing was initiated with the 2.0 g filament. In the absence of a paw withdrawal response, the next stronger stimulus was presented. In the event of paw withdrawal, the next weaker stimulus was used. […]
The 50% response threshold is calculated using the formula: […]

[2] = biological target: T1, human P2X4 (Homo sapiens, UniProt Q99571); experiment: Human P2X4 HEK Cell FLIPR Assay; type: cell-based; settings: HEK293 stably expressing human P2X4, agonist Bz-ATP 3 μM (EC80)
T1 construct: expressed in transfected cells
T1 sequence (Q99571 1-388): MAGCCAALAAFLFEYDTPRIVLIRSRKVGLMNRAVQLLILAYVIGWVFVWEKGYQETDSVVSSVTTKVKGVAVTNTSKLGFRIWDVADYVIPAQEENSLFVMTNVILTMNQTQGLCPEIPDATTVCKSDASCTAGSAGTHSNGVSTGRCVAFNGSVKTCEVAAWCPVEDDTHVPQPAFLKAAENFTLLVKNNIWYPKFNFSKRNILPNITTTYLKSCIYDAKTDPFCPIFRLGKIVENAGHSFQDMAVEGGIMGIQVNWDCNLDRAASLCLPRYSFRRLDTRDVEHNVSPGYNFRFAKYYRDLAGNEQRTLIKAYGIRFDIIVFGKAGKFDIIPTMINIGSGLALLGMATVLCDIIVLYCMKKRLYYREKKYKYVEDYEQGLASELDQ
Outline: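 HEK293 cells stably expressing human P2X4 were loaded with Fluo8-AM (30 min, 37 °C, HBSS/HEPES pH 7.4 with probenecid), then preincubated 30 min at room temperature with compound, 25 μM–1 nM final, 0.5% DMSO. Bz-ATP-evoked calcium fluorescence was read on FLIPR; data were normalized to agonist control and given a four-parameter fit for IC50.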

SMILES: CC(=O)N(c1ccc(F)c(F)c1)c1cc(NC(=O)Cc2ccc(F)cc2Cl)ccn1 [Example 68, N-{4-[2-(2-chloro-4-fluorophenyl)acetamido]pyridin-2-yl}-N-(3,4-difluorophenyl)acetamide]
- mechanical allodynia induced by CCI surgery [1]: decreased mechanical allodynia
- 50% paw withdrawal threshold ([1]; 30 and 100 mg/kg (FIG. 1)): increased 50% paw withdrawal threshold significantly
- Human P2X4 HEK Cells (FLIPR Assay) avg Efficacy [2]: 95%
- IC50 ([2]; read-out: Human P2X4 HEK Cells (FLIPR Assay) avg IC50): 411 nM
